Assay results published in patent US20250042873A1, “COMPOSITIONS AND METHODS FOR TREATING PROTEOTOXICITY-ASSOCIATED DISEASES” (priority 2021, published 2025).
Entries after “also recorded” stand apart in the source; their conditions may differ.

Tests used:
SOD1G93A ALS mouse model [1] = assay: Motor performance in the SOD1G93A ALS mouse model (Rotarod behavioral assays); assay type: in vivo; conditions: intraperitoneal injections at the same drug concentration, compared with UNC669, FIG. 3J
Method: The effect of UNC669 was tested on one of the most characterized mouse model of proteotoxicity, the SOD1G93A ALS model.
A number of the newly synthesized UNC669 analogs have been tested for their effects on the clearance of misfolded proteins in the cells.

[2] = system: tau protein expressed in human HEK293 cells; assay: Clearance of tau protein expressed in human HEK293 cells; assay type: cell-based; conditions: FIG. 4B
[3] = Brain penetration and pharmacokinetic studies using mass spectrometry analysis after intraperitoneal administration; assay type: in vivo; conditions: mice; for blood-brain barrier penetration (detection in brain and spinal cord tissues): within minutes after intraperitoneal administration, mass spectrometry
[4] = system: misfolded mutant SOD1 in the spinal cords; conditions: FIG. 2D (prior art), cited from earlier work
SOD1G93A ALS mouse model [5] = conditions: SOD1G93A mice, 17 mg/kg intraperitoneal, weekly from 8 weeks of age, after 12 weeks, FIG. 2B (prior art); cited from earlier work

SMILES	effect on improving motor performance (Rotarod) (SOD1G93A ALS mouse model [1])	clearance / levels of tau protein [2]	blood-brain barrier penetration (detection in brain and spinal cord tissues) [3]	concentrations in the plasma, brain, or spinal cords ([3]; 3 hours after intraperitoneal administration, FX8 vs FX6 or UNC669, FIG. 3I)	neuronal / motor neuron health (CHAT staining) ([4]; SOD1-G93A mice spinal cords)	immunostaining of spinal cords with antibody specific for misfolded proteins ([4]; SOD1-G93A mice)	motor ability / motor performance of the animals (SOD1G93A ALS mouse model [5])
O=C(c1cncc(Cl)c1)N1CCC(N2CCCC2)CC1 [FX6]	greater effects on improving the animals' motor performance	higher efficacy	can penetrate the blood-brain barrier	–	–	–	–
N#Cc1cccc(C(=O)N2CCC(N3CCCC3)CC2)n1 [FX8]	greater effects on improving the animals' motor performance	higher efficacy	can penetrate the blood-brain barrier	highest levels of accumulation	–	–	–
O=C(c1cncc(Br)c1)N1CCC(N2CCCC2)CC1 [UNC669]	–	decrease the levels of tau proteins; also recorded: enhanced clearance of tau protein	–	–	improved the health of the motor neurons; also recorded: improved neuronal health	reduction of the mutant protein	improvement in the animals' motor performance; also recorded: improves the motor ability of the animals
